Values of other authors, collected in article PMC8602434 (Drugs in R&D, 2021).

Legend:
[1] = sc, dose of 33 µmol/kg; cited from earlier work
[2] = sc administration; cited from earlier work
MC1R = settings: read-out: half maximal effective concentration (EC50); cited from earlier work

CCCC(=O)C1(c2ccccc2)CCN(C(=O)[C@@H](Cc2ccc(OC)cc2)NC(=O)[C@@H](N)Cc2cncn2C)CC1 [BMS-470539]
Cmax [1]: 11 µM

bremelanotide
tmax [2]: 0.5 to 1.0 h | t½ [2]: 1.9 to 2.7 h

α-melanocyte-stimulating hormone [α-MSH]
EC50 (MC1R): 0.22 nM
